# Measured values reported in patent publication US10729684B2, “Alkynyl dihydroquinoline sulfonamide compounds” (AMGEN INC., priority 2015, dated 2020).
# Columns and labels:
# [1] = RLM in vitro; conditions: b278 calls it HLM data in vitro
# [2] = target: human PXR (Homo sapiens (Human), UniProt O75469); test: human PXR @ 2 uM POC
# [3] = target: hNav1.7 (Homo sapiens (Human), UniProt Q15858); test: Nav 1.7 IWQ in vitro assay (IonWorks Quattro population patch-clamp); format: cell-based; conditions: HEK 293 cells stably transfected with Nav 1.7
# Sequence of hNav1.7 (Q15858 whole entry): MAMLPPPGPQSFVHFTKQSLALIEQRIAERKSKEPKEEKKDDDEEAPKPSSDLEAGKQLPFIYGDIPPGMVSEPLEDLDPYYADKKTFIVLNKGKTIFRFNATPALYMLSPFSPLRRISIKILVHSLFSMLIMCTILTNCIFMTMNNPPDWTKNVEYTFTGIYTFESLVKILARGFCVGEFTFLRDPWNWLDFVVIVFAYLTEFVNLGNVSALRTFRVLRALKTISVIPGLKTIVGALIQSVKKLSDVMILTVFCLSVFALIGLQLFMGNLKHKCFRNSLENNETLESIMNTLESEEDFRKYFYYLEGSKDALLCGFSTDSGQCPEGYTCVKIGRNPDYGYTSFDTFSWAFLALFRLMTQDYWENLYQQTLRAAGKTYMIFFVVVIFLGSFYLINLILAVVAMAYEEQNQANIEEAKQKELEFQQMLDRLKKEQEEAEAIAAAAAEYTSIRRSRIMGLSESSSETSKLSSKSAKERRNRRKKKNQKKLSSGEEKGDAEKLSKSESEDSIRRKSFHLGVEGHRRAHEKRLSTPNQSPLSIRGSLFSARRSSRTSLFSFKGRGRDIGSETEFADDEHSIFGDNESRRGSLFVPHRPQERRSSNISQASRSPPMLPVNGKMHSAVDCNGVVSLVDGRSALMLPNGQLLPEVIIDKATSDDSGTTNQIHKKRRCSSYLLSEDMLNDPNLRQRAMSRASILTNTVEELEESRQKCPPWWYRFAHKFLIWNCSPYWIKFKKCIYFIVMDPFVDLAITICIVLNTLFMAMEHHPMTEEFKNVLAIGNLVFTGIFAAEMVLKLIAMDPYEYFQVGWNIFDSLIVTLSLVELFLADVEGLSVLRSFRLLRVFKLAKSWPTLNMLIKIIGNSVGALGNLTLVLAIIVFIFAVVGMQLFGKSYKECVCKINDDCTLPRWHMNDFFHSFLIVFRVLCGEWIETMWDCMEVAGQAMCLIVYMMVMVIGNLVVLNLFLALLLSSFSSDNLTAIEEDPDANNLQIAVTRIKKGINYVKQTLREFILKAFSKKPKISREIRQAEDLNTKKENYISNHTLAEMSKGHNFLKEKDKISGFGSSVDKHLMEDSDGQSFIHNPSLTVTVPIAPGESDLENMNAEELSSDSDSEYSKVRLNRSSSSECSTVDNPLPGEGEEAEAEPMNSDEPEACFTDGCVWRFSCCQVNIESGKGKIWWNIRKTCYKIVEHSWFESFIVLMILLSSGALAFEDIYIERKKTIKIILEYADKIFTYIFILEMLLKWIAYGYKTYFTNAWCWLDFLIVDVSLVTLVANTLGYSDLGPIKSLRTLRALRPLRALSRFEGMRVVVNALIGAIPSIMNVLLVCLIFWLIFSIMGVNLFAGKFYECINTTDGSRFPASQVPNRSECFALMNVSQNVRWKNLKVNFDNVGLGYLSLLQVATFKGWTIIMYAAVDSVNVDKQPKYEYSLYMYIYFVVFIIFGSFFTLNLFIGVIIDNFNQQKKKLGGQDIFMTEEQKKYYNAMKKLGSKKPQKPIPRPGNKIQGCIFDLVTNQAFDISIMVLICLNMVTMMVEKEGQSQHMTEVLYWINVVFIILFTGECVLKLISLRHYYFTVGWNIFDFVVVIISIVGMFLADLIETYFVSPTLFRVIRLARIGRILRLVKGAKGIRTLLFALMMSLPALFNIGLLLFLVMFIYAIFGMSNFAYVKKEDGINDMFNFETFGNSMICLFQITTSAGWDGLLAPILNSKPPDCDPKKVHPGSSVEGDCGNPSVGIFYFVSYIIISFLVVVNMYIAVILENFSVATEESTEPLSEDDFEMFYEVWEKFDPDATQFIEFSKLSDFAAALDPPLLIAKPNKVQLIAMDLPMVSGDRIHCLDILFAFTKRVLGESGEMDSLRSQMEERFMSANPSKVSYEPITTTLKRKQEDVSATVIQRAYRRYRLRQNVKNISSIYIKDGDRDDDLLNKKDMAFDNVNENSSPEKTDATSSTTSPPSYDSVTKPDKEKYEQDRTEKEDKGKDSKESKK
# Protocol: Nav 1.7 or Nav 1.5 IWQ In Vitro Assay
# HEK 293 Cells stably transfected with either Nav 1.7 or Nav 1.5 were recorded in population patch-clamp mode with the IonWorks® Quattro automated electrophysiology system in accordance with the manufacturer's specifications (Molecular Devices, LLC, Sunnyvale, Calif.). Sodium channel currents were measured in response to a train of depolarizations that induced successively greater inactivation.
# Cells were held at −110 mV for three seconds (Nav 1.7) or half a second (Nav 1.5) from a holding voltage of −15 mV, then put through a series of 26 pulses of 150 msec duration to −20 mV at a frequency of 5 Hz. Cells were then left unclamped for a period of 3 to 8 minutes while a single concentration of test compound was added. Cells were then reclamped and put through the same voltage protocol. Current at the end of the 26th pulse to −20 mV was subtracted from the peak current evoked by the 26th pulse to −20 mV to correct for leak current. Percent block was calculated for each concentration in duplicate, and IC50 curves were fitted to percent block as a function of concentration.
# [4] = target: human Nav1.7 (Homo sapiens (Human), UniProt Q15858); test: Nav 1.7 in vitro PX assay (PatchXpress whole cell voltage clamp); format: cell-based; conditions: HEK 293 cells stably transfected with human Nav1.7, partially inactivated state, read-out: hNav1.7 PX IC50
# Sequence of human Nav1.7 (Q15858 whole entry): as above
# Protocol: Nav 1.7 In Vitro PX Assay
# HEK 293 cells stably transfected with human Nav1.7 were recorded in whole cell voltage clamp mode with the PatchXpress automated electrophysiology system (Molecular Devices, LLC, Sunnyvale, Calif.). Compound effects were measured on a partially inactivated state of the sodium channel. Cells were clamped to a holding potential yielding 20 to 50% inactivation. To elicit sodium current, channels were activated by pulsing to −10 mV for 20 msec. This voltage protocol was repeated at a rate of 0.1 Hz throughout the experiment. A single concentration of test compound was applied to cells for a duration of 3 minutes. Peak sodium current was measured at the end of the compound addition period to determine percent inhibition. Three to five cells were tested per concentration, and IC50 curves were fitted to percent inhibition as a function of concentration.
# Sequence of human PXR (O75469 whole entry): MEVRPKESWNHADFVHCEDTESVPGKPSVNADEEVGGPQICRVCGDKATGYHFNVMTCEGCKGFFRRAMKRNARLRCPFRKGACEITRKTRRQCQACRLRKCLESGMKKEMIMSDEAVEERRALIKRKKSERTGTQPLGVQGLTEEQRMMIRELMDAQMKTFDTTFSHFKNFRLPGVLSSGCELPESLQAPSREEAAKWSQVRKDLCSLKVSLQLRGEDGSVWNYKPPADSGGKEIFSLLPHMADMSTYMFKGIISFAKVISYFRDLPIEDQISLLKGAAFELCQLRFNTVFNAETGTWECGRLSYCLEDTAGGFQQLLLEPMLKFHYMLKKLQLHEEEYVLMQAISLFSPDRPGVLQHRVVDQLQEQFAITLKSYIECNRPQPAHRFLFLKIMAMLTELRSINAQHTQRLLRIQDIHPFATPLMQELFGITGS
SMILES,RLM in vitro [1] [µL/min/mg],human PXR @ 2 uM POCS [2] [%],IC50 [3] [nM],IC50 [4] [nM]
"COc1cc(C#CC2(C(F)(F)F)CC2)c(F)cc1-n1c(=O)ccc2cc(S(=O)(=O)Nc3ccon3)ccc21 (atropisomer, axis not shown; (P)) [Example 5, (P)-1-(5-fluoro-2-methoxy-4-((1-(trifluoromethyl)cyclopropyl)ethynyl)phenyl)-N-(isoxazol-3-yl)-2-oxo-1,2-dihydroquinoline-6-sulfonamide]",<14.0,1.73,,
"COc1cc(C#CC2CCCC2)c(Cl)cc1-n1c(=O)ccc2cc(S(=O)(=O)Nc3ccon3)ccc21 (atropisomer, axis not shown; (P)) [Example 6, (P)-1-(5-chloro-4-(cyclopentylethynyl)-2-methoxyphenyl)-N-(isoxazol-3-yl)-2-oxo-1,2-dihydroquinoline-6-sulfonamide]",58,−3.96,,
"COc1cc(C#CC2CCCC2)c(F)cc1-n1c(=O)ccc2cc(S(=O)(=O)Nc3ccon3)ccc21 (atropisomer, axis not shown; (P)) [Example 10, (P)-1-(4-(cyclopentylethynyl)-5-fluoro-2-methoxyphenyl)-N-3-isoxazolyl-2-oxo-1,2-dihydro-6-quinoline Sulfonamide]",39.8,2.94,,
"COc1cc(C#C[C@@H]2C[C@H]2C(F)(F)F)c(F)cc1-n1c(=O)ccc2cc(S(=O)(=O)Nc3ccon3)ccc21 (stereo in doubt) [Example 4B, 1-(5-fluoro-2-methoxy-4-(((1R,2R)-2-(trifluoromethyl)cyclopropyl)ethynyl)phenyl)-N-3-isoxazolyl-2-oxo-1,2-dihydro-6-quinolinesulfonamide]",<14.0,−3.81,5.5,
"COc1cc(C#C[C@@H]2C[C@@H]2C(F)(F)F)c(F)cc1-n1c(=O)ccc2cc(S(=O)(=O)Nc3ccon3)ccc21 (single isomer, unassigned) [Example 4A]",<14.0,23.19,6.8,
"COc1cc(C#CC2CCCC(F)(F)C2)c(F)cc1-n1c(=O)ccc2cc(S(=O)(=O)Nc3ccon3)ccc21 (racemic) [Example 7, (P) 1-(4-((3,3-difluorocyclohexyl)ethynyl)-5-fluoro-2-methoxyphenyl)-N-(isoxazol-3-yl)-2-oxo-1,2-dihydroquinoline-6-sulfonamide]",,,7.8,
COc1cc(C#CC2CCCC2)c(F)cc1-n1c(=O)ccc2cc(S(=O)(=O)Nc3cccnn3)ccc21 [Example 9],32.2,11.80,8.95,19.3
"COc1cc(C#CC2CCCC(F)(F)C2)c(F)cc1-n1c(=O)ccc2cc(S(=O)(=O)Nc3ccon3)ccc21 (atropisomer, axis not shown; (P)) [Example 7, (P) 1-(4-((3,3-difluorocyclohexyl)ethynyl)-5-fluoro-2-methoxyphenyl)-N-(isoxazol-3-yl)-2-oxo-1,2-dihydroquinoline-6-sulfonamide]",<14.0,−0.78,,
"COc1cc(C#C[C@H]2C[C@@H]2C(F)(F)F)c(F)cc1-n1c(=O)ccc2cc(S(=O)(=O)Nc3ccon3)ccc21 (stereo in doubt) [Example 4, (P)-1-(5-fluoro-2-methoxy-4-((2-(trifluoromethyl)cyclopropyl)ethynyl)phenyl)-N-(isoxazol-3-yl)-2-oxo-1,2-dihydroquinoline-6-sulfonamide]",,,7,
"COc1cc(C#C[C@H]2C[C@@H]2C(F)(F)F)c(F)cc1-n1c(=O)ccc2cc(S(=O)(=O)Nc3ccon3)ccc21 (atropisomer, axis not shown; (P)) [Example 4, (P)-1-(5-fluoro-2-methoxy-4-((2-(trifluoromethyl)cyclopropyl)ethynyl)phenyl)-N-(isoxazol-3-yl)-2-oxo-1,2-dihydroquinoline-6-sulfonamide]",<14.0,13.54,,
"COc1cc(C#CC2CCCC2)ccc1-n1c(=O)ccc2cc(S(=O)(=O)Nc3ccon3)ccc21 (atropisomer, axis not shown; (P)) [Example 3, (P)-1-(4-(cyclopentylethynyl)-2-methoxyphenyl)-N-(isoxazol-3-yl)-2-oxo-1,2-dihydroquinoline-6-sulfonamide]",39,−1.44,7.5,49.7
"COc1cc(C#CC2CCC(F)(F)CC2)c(F)cc1-n1c(=O)ccc2cc(S(=O)(=O)Nc3ccon3)ccc21 (atropisomer, axis not shown; (P)) [Example 1, (P)-1-(4-((4,4-difluorocyclohexyl)ethynyl)-5-fluoro-2-methoxyphenyl)-N-(isoxazol-3-yl)-2-oxo-1,2-dihydroquinoline-6-sulfonamide]",<14.0,2.36,3.3,
"COc1cc(C#CC(C)(C)C(F)(F)F)c(F)cc1-n1c(=O)ccc2cc(S(=O)(=O)Nc3ccon3)ccc21 (atropisomer, axis not shown; (P)) [Example 2, (P)-1-(5-fluoro-2-methoxy-4-(4,4,4-trifluoro-3,3-dimethylbut-1-yn-1-yl)phenyl)-N-(isoxazol-3-yl)-2-oxo-1,2-dihydroquinoline-6-sulfonamide]",<14.0,1.38,1.2,
